The text below walks through data of patent US6835733B2, “Tropane linked benzofuran derivatives” (Eli Lilly and Company, priority 1999, dated 2004).

Each structure is given as a SMILES string. Structures can show the parent of a compound that is named as a salt.

As for `COc1cccc2sc(C3=CC4CCC(C3)N4C[C@H](O)COc3cccc4occc34)cc12` (stereo partly shown) (as salt: oxalate), the melting point was 201 to 204 °C (dec.).

One may read the melting point as the temperature of the solid-liquid transition.
